Results published in US3976695A, “Halogen substituted α-(aminoalkyl)-3,4-dihydroxybenzyl alcohols” (SmithKline Corporation, priority 1970, dated 1976).
Converted amounts (≈) assume the structure as drawn.

Experiments:
[1] = system: guinea pig tracheal chain preparations; test: relaxation of spontaneous tone of guinea pig tracheal chain (ring) preparation, β-stimulant effect on airway smooth muscle; conditions: for absolute separation ratio: atrial ED25 versus tracheal ED50, in vitro guinea pig preparations
Text: (§1) Two in vitro test systems used for determining selective β-stimulant activity are: (1) effect on spontaneous tone of guinea pig tracheal chain preparations as a measure of β-stimulant (direct relaxant) effect on airway smooth muscle, and (2) effect on rate of spontaneously beating right atria of the guinea pig as a measure if β-stimulant effect on cardiac muscle.

[2] = system: right atria of the guinea pig; test: rate of spontaneously beating guinea pig right atria, β-stimulant effect on cardiac muscle; conditions: Cavia porcellus, in vitro, read-out: ED25, increasing the rate of contraction of guinea pig right atria
Text: as §1

SMILES | EC50 ([1]; Cavia porcellus, in vitro, guinea pig tracheal ring preparation, read-out: ED50, relaxes the spontaneous tone of guinea pig tracheal ring preparation) [ng/mL] | absolute separation ratio [1] | improvement of absolute separation ratio compared to d, 1-isoproterenol ([1]; versus d, 1-isoproterenol in similar in vitro preparations) [fold] | EC25 [2] [ng/mL]
CC(C)NCC(O)c1ccc(O)c(O)c1Cl (stereo not drawn) [2-chloro-3,4-dihydroxy-α-(isopropylaminomethyl)-benzyl alcohol] | 0.23 (≈ 0.936 nM) | 7 | 14 | 1.6 (≈ 6.51 nM)
CC(C)NCC(O)c1ccc(O)c(O)c1 (centres unmarked) [d, 1-isoproterenol, reference compound] |  | 0.5 |  | 
